Earlier results on one compound are cited in patent US7592371B2, “External preparation” (Medrx Co., Ltd., priority 2004, dated 2009).

The conditions of this data set: oral administration.

In the case of `COc1ccc(C=CC(=O)Nc2ccccc2C(=O)O)cc1OC` [tranilast, N-(3,4-Dimethoxycinnamoyl) anthranilic acid], the side effects result is “serious side effects such as hepatic dysfunction and renal dysfunction”.
